A short description of data set [1]: In vivo fluorescence imaging (IVIS) biodistribution. To be noted: inferred from BODIPY517/547-genistein distribution.
Procedure: High-magnification images of the green-boxed area are shown with the scale bar at 100 mm. […] Total cell lysates were prepared, and the expression of phosphorylated NF-κB and NF-κB was analyzed by western blot analysis. Immunoblots were quantified by ImageJ software (left panel). […] The in vivo fluorescence images were detected by the IVIS Spectrum at indicated time points. All mice were sacrificed at 48 hours, and major organs were collected and then fixed using formalin (left panel). Fluorescence images were quantified using the IVIS imaging system. […] Images of the brain, heart and lung, thoracic aorta, liver, spleen, kidney, intestine, colon, and blood were obtained from mice (n=5) (right panel). Fluorescence images were quantified using the ImageJ software (middle bottom).
The target in another data set is CB1 receptor (Homo sapiens, UniProt P21554). The experiment in a line: GTPase-Glo assay (in vitro GTPase assay). The data set is classed as biochemical.
The subject of data set [2] is WT hiPSC-ECs and CB1 CRISPRi hiPSC-ECs. Put plainly: TNF-α challenge of WT and CB1 CRISPRi hiPSC-ECs. To be noted: 10 ng/ml TNF-α with 10 μM genistein.
For data set [3], the system named is LDL receptor knockout mice (B6.129S7-Ldlr^tm1Her/J). The experiment in a line: Chronic atherosclerosis in Ldlr−/− mice on high-fat diet. The data set is classed as in vivo, mouse. Conditions: HFD 12 weeks. From the text:
FIG. 9A to 9E illustrate the effect of Δ^9-THC and genistein on the formation of chronic atherosclerosis according to Example 10. FIG. 9A: The body weights of Ldlr^−/− mice after exposure to (1) vehicle control (n=10), (2) Δ^9-THC (n=12), or (3) Δ^9-THC plus genistein (n=12). FIG. 9B: Lipid profiles of serum samples (left panel) and blood pressure (right panel) of Ldlr^−/− mice after exposure to (1) vehicle control (n=10 (left), n=3 (right)), (2) Δ^9-THC (n=12 (left), n=4 (right)), and (3) Δ^9-THC plus genistein (n=12 (left), n=4 (right)). The blood pressure was measured by tail-cuff. FIG. 9C: Oil red O staining of atherosclerotic plaques in cross-sections at the aortic root level (upper panel). Quantitation of atherosclerotic plaques: (1) vehicle control (n=10), (2) Δ^9-THC (n=10), and (3) Δ^9-THC plus genistein (n=11) (bottom panel). FIG. 9D: Gross images of oil red O stained Ldlr^−/− thoracic aorta are shown (left panel). Quantification of plaque size by en face analysis of thoracic aorta after exposure to (1) vehicle control (n=10), (2) Δ^9-THC (n=12), or (3) Δ^9-THC plus genistein (n=12). FIG. 9E: Immunostaining of CD68 in cross-sections at the aortic root level (upper panel). Quantitation of CD68-positive area from (1) vehicle control (n=10), (2) Δ^9-THC (n=9), and (3) Δ^9-THC plus genistein (n=10) (bottom panel).
In this part, In order to investigate the effect of Δ^9-THC and genistein in chronic atherosclerosis formation, LDL receptor knockout mice (B6.129S7-Ldlr^tm1Her/J) were fed a high-fat diet (HFD) for 12 weeks and treated with (1) vehicle control (n=10 to 12/group), (2) Δ^9-THC (n=10 to 12/group, administered Δ^9-THC 1 mg/kg), or (3) Δ^9-THC and genistein (n=10 to 12/group, administered Δ^9-THC 1 mg/kg plus genistein 50 mg/kg). […] After 12 weeks of HFD, the mice were euthanized, and the atherosclerotic lesion area was examined by cross-sections of the aortic root and an en face analysis of the thoracic aorta. […] Macrophage recruitment in the aortic root was analyzed using aortic plaque stained with an anti-CD68 antibody.

A further data set concerns various organs. To be noted: in vivo.
Another data set relates to C57BL/6J mice. The experiment in a line: Neurobehavioral tetrad (Billy Martin tetrad) in mice. The procedure:
FIG. 13 illustrate the effect of genistein on the neurobehavioral effects of Δ^9-THC according to Example 12. C57BL/6J mice were exposed to (1) vehicle control (intraperitoneal [i.p.], and oral [p.o.], n=8), (2) Δ^9-THC at 20 mg/kg i.p. and p.o. vehicle (n=9), (3) genistein at 50 mg/kg p.o. and i.p. vehicle (n=8), and (4) combination of Δ^9-THC at 20 mg/kg i.p. and genistein at 50 mg/kg p.o. (n=9). […] Hypothermia was assessed by measuring body temperature using a rectal probe before and 60 min after treatment. The catalepsy test measures the time a mouse remained immobile on the bar. Analgesia was measured by placing mice on a hot plate and recording the time for the mouse to withdraw or lick.
These are described as the Billy Martin tetrad.
Therefore, the neurological effects of Δ^9-THC and genistein co-administration were tested in C57BL/6J mice treated with vehicle, genistein, Δ^9-THC, or in combination. The tetrad effects were assessed using an activity chamber for mobility, a hot plate for analgesia, a rectal probe for hypothermia, and the bar test for […].

The test system of data set [4] is hiPSC-ECs. Put plainly: CellROX oxidative stress assay / ROS-Glo H2O2 assay in hiPSC-ECs. Conditions: 5 μM Δ^9-THC alone, 48 hours.
Data set [5] has as its system hiPSC-ECs. The experiment in a line: Wash-out experiments, inflammation-related gene expression in hiPSC-ECs. Conditions: 5 μM Δ^9-THC 48 hours, then fresh medium.
The subject of data set [6] is hiPSC-ECs. Put plainly: Monocyte (U937) adhesion assay on hiPSC-ECs. Conditions: 5 μM Δ^9-THC alone, 48 hours.
A short description of data set [7]: Plasma concentration by LC-MS analysis. To be noted: Δ^9-THC 1 mg/kg.
The subject of the next data set is HUVECs. The experiment in a line: qPCR gene expression in HUVECs. To be noted: 5 μM Δ^9-THC, 48 hours, normalized to GAPDH. In general terms: Quantitative PCR measures a nucleic acid by following its amplification.
The test system of data set [8] is hiPSC-ECs. Put plainly: CellTiter-Glo cell viability, hiPSC-ECs. To be noted: various concentrations, 24 or 48 hours.
For data set [9], the system named is human endothelial cells (HUVECs and HCAECs). The experiment in a line: CellTiter-Glo cell viability, human endothelial cells. To be noted: increasing concentrations of Δ^9-THC, 48 hours. For orientation: In ATP-based viability assays light output follows the ATP content of the culture.
Setting [10] is: Δ^9-THC 1 mg/kg plus genistein 50 mg/kg.

Chain of CB1 receptor (P21554 whole entry): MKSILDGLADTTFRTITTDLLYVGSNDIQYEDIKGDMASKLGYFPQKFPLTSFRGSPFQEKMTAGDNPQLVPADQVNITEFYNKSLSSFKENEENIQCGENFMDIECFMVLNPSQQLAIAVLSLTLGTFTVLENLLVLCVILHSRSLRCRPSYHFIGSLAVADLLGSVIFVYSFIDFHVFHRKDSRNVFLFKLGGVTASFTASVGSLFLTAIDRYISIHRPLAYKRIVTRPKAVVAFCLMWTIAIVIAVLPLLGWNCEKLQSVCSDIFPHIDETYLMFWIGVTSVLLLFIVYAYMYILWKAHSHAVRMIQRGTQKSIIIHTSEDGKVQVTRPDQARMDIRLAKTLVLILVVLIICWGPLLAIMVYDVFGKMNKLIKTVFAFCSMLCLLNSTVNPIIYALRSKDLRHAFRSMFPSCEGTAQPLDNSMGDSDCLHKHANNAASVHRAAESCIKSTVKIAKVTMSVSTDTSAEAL

As for `O=c1c(-c2ccc(O)cc2)coc2cc(O)cc(O)c12` [genistein], in [1], the “blood-brain barrier (BBB) penetration” value is “poor blood-brain barrier (BBB) penetration”. Also, the “function at CB1 in in vitro GTPase assay” value at CB1 receptor was “neutral antagonist”. The “GTP turnover compared with Apo” value on CB1 receptor (GTPase-Glo assay) is “same GTP turnover as Apo”. Further, the “expression of ILIA” value in [2] (CB1 CRISPRi hiPSC-ECs) was “increased significantly”. Further, in data set [2] (WT hiPSC-ECs), the “TNF-α-increased expression of CXCR8” value is given as “attenuated”, the “TNF-α-increased expression of IL6” value is given as “attenuated” and the “expression of ILIA” value is reported as “decreased”. Moreover, the “TNF-α-increased expression of SOD1” value in data set [2] (WT or CB1 CRISPRi hiPSC-ECs) is on record as “not attenuated”. For the same compound, in [3] (setting [10]), the “CD68-positive area in the aortic root” value is on record as “rescued”; the “plaque formation, en face analysis of the thoracic aorta (oil red O)” value is recorded as “improvement of plaque formation”; the “plaque size, cross-sections of the aortic root” value is given as “ameliorated plaque size”; the “serum lipid profiles or blood pressure” value is “Neither Δ^9-THC nor cotreatment with Δ^9-THC and genistein affected”. In addition, the “toxicity to various organs” value in the data set on various organs is reported as “did not exhibit any toxicity to various organs”. Besides, the tetrad effects result with C57BL/6J mice (genistein 50 mg/kg p.o. alone) was “did not affect tetrad effects”. The “Δ^9-THC neurobehavioral effects” value in the data set on C57BL/6J mice (Δ^9-THC 20 mg/kg i.p. and genistein 50 mg/kg p.o.) is reported as “could not attenuate”.

`CCCCCc1cc(O)c2c(c1)OC(C)(C)[C@@H]1CCC(C)=C[C@@H]21` [Δ^9-THC, Δ^9-tetrahydrocannabinol]: in the data set on hiPSC-ECs [4], the “cellular oxidative stress (CellROX)” value was “induced cellular oxidative stress”. Moreover, the “time the induced expression of proinflammatory cytokines and chemokines was sustained (recovery time)” value with hiPSC-ECs [5] lay within 8 to 10 days. In addition, the “monocyte adhesion to hiPSC-ECs” value in the data set with hiPSC-ECs [6] is “increased adhesion”. In [3] (Δ^9-THC 1 mg/kg), the “CD68-positive area in the aortic root” value is on record as “significantly increased”; the “plaque size, cross-sections of the aortic root” value is given as “significantly increased plaque size”; the “serum lipid profiles or blood pressure” value was “Neither Δ^9-THC nor cotreatment with Δ^9-THC and genistein affected”. Also, the plasma concentration in [7] is given as roughly 100 ng/mL. In addition, in the data set with HUVECs, the antioxidant-related gene expression result is recorded as “reduced the antioxidant-related gene expression” and the “expression of inflammation-related genes” value is listed as “induced the expression of inflammation-related genes”. In the data set with hiPSC-ECs [8], the “cytotoxicity (cell viability)” value is given as “induced cytotoxicity”. Also, in the data set with C57BL/6J mice (Δ^9-THC 20 mg/kg i.p.), the “analgesia (hot plate)” value is listed as “analgesia”, the “hypothermia (rectal probe)” value is given as “hypothermia”, the “mobility (activity chamber)” value is “decreased mobility” and the “sedation (bar test)” value is “sedation”. Besides, the “cytotoxicity (cell viability)” value in [9] is reported as “induced cytotoxicity”.

For the origin of these results see patent US20240358672A1, “APPLICATION OF GENISTEIN AND ITS PHOSPHATE ESTER DERIVATIVE AND PHARMACEUTICAL COMPOSITION COMPRISING THE SAME” (National Taiwan University, priority 2023, published 2024).
